Test results from paper PMC12427806, “Calpain-1 and Calpain-2 Promote Breast Cancer Metastasis” (Cells, 2025).
Where a SMILES comes first, the peptide text is derived from it. [ ]: non-standard residue; d: D form. The star is where a group is joined. 5FAM = O=C1OC2(c3ccc(O)cc3Oc3cc(O)ccc32)c2ccc(C(=O)*)cc21

Key:
MDA-MB-231 cells = assay: Single-cell migration on collagen (IncuCyte video microscopy, DiPer MSD analysis), WT cells; type: cell-based, human; conditions: WT + mB27, 4 µM; Std. Error 0.6565; WT + vehicle slope 14.65
Procedure: (§1) For the migration assay, plates were coated with 15 µg/mL rat tail collagen type 1 (BD-Biosciences, Franklin Lakes, NJ, USA). Cells were seeded at 1000 cells per well. Plates were imaged using the IncuCyte Live-Cell Analysis System (Essen Bioscience, Ann Arbor, MI, USA) every 10 min for 24 h. Cell migration was tracked using the “Track Object” program in Metamorph 7.8 (Molecular Devices, LLC., San Jose, CA, USA). The resulting coordinates were analyzed with the DiPer program to measure speed and directional persistence of migration. Experiments were conducted in triplicate, each with at least 20 cells per genotype. The results are presented as the mean ± standard error of the mean. […]
(§2) Migration propensity of calpain-deficient cells was measured by IncuCyte video microscopy of single-cell trajectories on a collagen substrate, which were then analyzed according to an established protocol using three measures of migration: (1) speed of migration (a raw value of displacement from frame to frame); (2) directionality (a ratio of cell displacement to path); and (3) mean square displacement (MSD, how much area a migrating cell has covered).
(§3) To evaluate the effect of this calpain inhibitor, we first measured MDA-MB-231 cancer cell migration in the presence of 4 µM mB27 (Figure 5a,b). […] A thorough quantification and statistical analysis of cell migration are presented in Supplementary Information 12.

[1] = tested on: CAPNS1 KO MDA-MB-231 cells; assay: Single-cell migration on collagen (IncuCyte video microscopy, DiPer MSD analysis), CAPNS1 KO cells; type: cell-based, human
Procedure: as §1, §2, §3

WT MDA-MB-231 tumors = assay: Orthotopic engraftment resect-and-wait model of mammary tumor growth and lung metastasis; type: in vivo, Rag2-/- IL2Rγc-/- mice; conditions: n = 10
Procedure: Cells were washed, counted, and resuspended in PBS to achieve a concentration of 1,000,000 cells in 40 µL and placed on ice and supplemented with Growth Factor Reduced Matrigel (Corning Inc., Corning, NY, USA, catalog number 354,230) in a 10:40 Matrigel/cell suspension ratio. The resulting mixture was maintained on ice until the engraftment. Matrigel was included in the engraftment suspension to promote initial cell retention in the engrafted bolus in the mammary fat pad and to ensure consistent tumor onset. While MDA-MB-231 cells can form tumors without matrix in Rag2^-/- IL2Rγc^-/- mice, the addition of Matrigel could reduce experimental variability and mimic the basement membrane or extracellular matrix components of the tumor microenvironment.
All animal procedures were approved by the university animal care committee in accordance with guidelines from the Canadian Council on Animal Care. […]
The wound clips were removed one week after the engraftment surgery, and the tumor size was measured daily until it reached 600 mm^3. […] When tumors reached the maximum volume (19 to 22 days after the engraftment surgery, determined individually for every mouse), they were resected by recovery surgery, and mice were then monitored for 12 days before being euthanized with CO2 and cervical dislocation and assessed for metastasis. […]

CC[C@H](C)[C@H](NC(=O)[C@H](Cc1ccc(O)cc1)NC(=O)[C@@H](NC(=O)[C@H](CO)NC(=O)[C@H](CO)NC(=O)[C@H](CCSC)NC(=O)[C@H]1CCCN1C(=O)[C@@H](CC(=O)O)NC(=O)c1ccc2c(c1)C(=O)OC21c2ccc(O)cc2Oc2cc(O)ccc21)[C@@H](C)O)C(=O)N[C@@H](CCC(=O)O)C(=O)N[C@@H](CCC(=O)O)C(=O)N[C@@H](CC(C)C)C(=O)NCC(=O)N[C@@H](CCCCN)C(=O)N[C@@H](CCCNC(=N)N)C(=O)N[C@@H](CCC(=O)O)C(=O)N[C@H](C(=O)N[C@H](C(=O)N[C@H](C(=O)N1CCC[C@H]1C(=O)N1CCC[C@H]1C(=O)N[C@@H](CCCCN)C(=O)N[C@@H](Cc1ccc(O)cc1)C(=O)N[C@@H](CCCNC(=N)N)C(=O)N[C@@H](CCC(=O)O)C(=O)N[C@@H](CC(C)C)C(=O)N[C@@H](CC(C)C)C(=O)N[C@@H](C)C(=O)N[C@@H](CCCNC(=N)N)C(=O)N[C@@H](CCCNC(=N)N)C(=O)N[C@@H](CCCNC(=N)N)C(=O)N[C@@H](CCCNC(=N)N)C(=O)N[C@@H](CCCNC(=N)N)C(=O)N[C@@H](CCCNC(=N)N)C(=O)N[C@H](CCCNC(=N)N)C(=O)N[C@H](CCCNC(=N)N)C(=O)N[C@H](CCCNC(=N)N)C(=O)O)[C@@H](C)CC)[C@@H](C)O)C(C)C [mB27] (5FAM-[dD][dP]MSSTYIEELGKREVTIPPKYRELLARRRRRR[dR][dR][dR]-OH; N-terminus and C-terminus assumed)
Best-fit slope of MSD (MDA-MB-231 cells): 7.652
Best-fit slope of MSD ([1]; CAPNS1 KO + mB27, 4 µM, Std. Error 0.4558, CAPNS1 KO + vehicle slope 3.642): 3.365
Effect of peptide on migration of CAPNS1 KO cells (in words) ([1]; CAPNS1 KO MDA-MB-231 cells, 4 µM peptide, ANCOVA p = 0.6134): no effect
Tumor growth rate (WT MDA-MB-231 tumors; 5 mg/kg/day intraperitoneally for 14 days from 50 mm^3 to 600 mm^3 tumor volume, vehicle 0.431 ± 0.046, p = 0.8554): 0.428 ± 0.024 mm diameter per day
Lung metastasis (WT MDA-MB-231 tumors; 5 mg/kg/day intraperitoneally for 14 days, tumor resection at 600 mm^3, lungs assessed 12 days later, vehicle 1.12 ± 1.35, p = 0.102 (not significant)): 0.34 ± 0.20 metastases per mm^2
